{"source": "paper PMC7583350", "about": "(Journal of medicinal chemistry, 2018)", "key": {"[1]": {"test_system": "MIA PaCa-2 cells", "experiment": "Co-treatment with gemcitabine, MIA PaCa-2 pancreatic cancer cells", "format": "cell-based, human", "conditions": "GEM-sensitive, 15 μM IAP inhibitor, 24 hrs co-treatment"}, "[2]": {"test_system": "PANC-1 cells", "experiment": "Co-treatment with gemcitabine, PANC-1 pancreatic cancer cells", "format": "cell-based, human", "conditions": "GEM-resistant, 15 μM IAP inhibitor, 24 hrs co-treatment"}, "[3]": {"test_system": "BxPC3 cells", "experiment": "Co-treatment with gemcitabine, BxPC3 pancreatic cancer cells", "format": "cell-based, human", "conditions": "15 μM IAP inhibitor, 24 hrs co-treatment"}, "[4]": {"test_system": "H929 cells", "experiment": "MTS assay, multiple myeloma cell line H929", "format": "cell-based, human", "conditions": "LCL161-sensitive MM cell line, 48 hr, 20 μM"}, "[5]": {"test_system": "L363 cells", "experiment": "MTS assay, multiple myeloma cell line L363", "format": "cell-based, human", "conditions": "LCL161-sensitive MM cell line, 48 hr, 20 μM"}, "[6]": {"test_system": "MOLT-4 cells", "experiment": "Cell viability of MOLT-4 cells", "format": "cell-based, human", "conditions": "MOLT-4, 48 hrs"}, "[7]": {"test_system": "MOLT-4 cells", "conditions": "cited from earlier work"}, "[8]": {"target": "BIR2 domain of XIAP (Homo sapiens, UniProt P98170)", "sequence (P98170 152-236 limits assumed)": "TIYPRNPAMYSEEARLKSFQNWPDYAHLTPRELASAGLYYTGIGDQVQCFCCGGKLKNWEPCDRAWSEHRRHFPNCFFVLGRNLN", "experiment": "DELFIA assay, BIR2 domain of XIAP", "format": "binding", "conditions": "supplementary Table S1"}}, "note": "Entries after “also recorded” stand apart in the source; their conditions may differ."}
{"smiles": "CN[C@@H](C)C(=O)N[C@@H](Cc1cc(C)c(C(F)(F)F)cc1F)C(=O)N1CCC[C@H]1C(=O)N[C@@H]1CCc2c(F)cccc21", "note": "[Compound 31]", "values": [{"measurement": "Effect in combination with gemcitabine, MIA PaCa-2", "setting": "[1]", "value": "modest significant additive effect"}, {"measurement": "Effect in combination with gemcitabine, PANC-1", "setting": "[2]", "value": "significantly restore growth inhibition by gemcitabine; also recorded: significant synergism"}, {"measurement": "Effect in combination with gemcitabine, BxPC3", "setting": "[3]", "value": "significantly restore growth inhibition by gemcitabine; also recorded: significant synergism"}]}
{"smiles": "CN[C@@H](C)C(=O)N[C@H](C(=O)N1CCC[C@H]1c1nc(C(=O)c2ccc(F)cc2)cs1)C1CCCCC1", "note": "[LCL161]", "values": [{"measurement": "Growth inhibition H929", "setting": "[4]", "value": "particularly active"}, {"measurement": "Growth inhibition L363", "setting": "[5]", "value": "particularly active"}, {"measurement": "Effect in combination with gemcitabine, PANC-1", "setting": "[2]", "value": "significantly restore growth inhibition by gemcitabine"}, {"measurement": "Effect in combination with gemcitabine, BxPC3", "setting": "[3]", "value": "significantly restore growth inhibition by gemcitabine"}, {"measurement": "Activity in cell viability assay", "setting": "[6]", "value": "not particularly active; also recorded: less potent than both compound 34 and compound 31"}, {"measurement": "Sensitivity of MOLT-4 cell line", "setting": "[7]", "value": "insensitive"}, {"measurement": "Affinity for the BIR2 domain of XIAP", "setting": "[8]", "value": "only modest affinity"}]}
